The values below come from patent publication US20020151595A1, “Carboxylic acid amides having antithrombotic activity” (priority 2001, published 2002).

Each structure is given as a SMILES string.

The target of this test is T1, human factor Xa (Homo sapiens, UniProt P00742).
T1 construct: human factor Xa; purchased Roche
As to the kind of experiment: Inhibition of factor Xa, enzyme-kinetic measurement with chromogenic substrate. The following applies: chromogenic substrate Chromozym X 200 μMol/l, pH 8.0, 37° C., photometric at 405 nm. The class given is biochemical. The procedure: Method: Enzyme-kinetic measurement with chromogenic substrate. The quantity of anpnitroaniline (pNA) released from the colourless chromogenic substrate by human factor Xa is determined photometrically at 405 nm. It is proportional to the activity of the enzyme used. The inhibition of the enzyme activity by the test substance (in relation to the solvent control) is determined at various concentrations of test substance and from this the IC50 is calculated, as the concentration which inhibits the factor Xa used by 50%.
Material: Tris(hydroxymethyl)-aminomethane buffer (100 mmol) and sodium chloride (150 mMol), pH 8.0
Factor Xa (Roche), spec. activity: 10 U/0.5 ml, final concentration: 0.175 U/ml per reaction mixture
Substrate Chromozym X (Roche), final concentration: 200 μMol/l per reaction mixture
Procedure: 10 μl of a 23.5-times concentrated starting solution of the test substance or solvent (control), 175 μl of tris(hydroxymethyl)-aminomethane buffer and 25 μl of a 1.65 U/ml Factor Xa working solution are incubated for 10 minutes at 37° C. After the addition of 25 μl of Chromozym X working solution ([…]) the sample is measured in a photometer (SpectraMax 250) at 405 nm for 150 seconds at 37° C.
1. Determining the maximum increase (deltaOD/minutes) over 3 measuring points.
2. Determining the % inhibition based on the solvent control.
3. Plotting a dosage/activity curve (% inhibition vs substance concentration).
4. Determining the IC50 by interpolating the X value (substance concentration) of the dosage/activity curve at Y=50% inhibition.

T1 sequence (P00742 235-488 limits assumed): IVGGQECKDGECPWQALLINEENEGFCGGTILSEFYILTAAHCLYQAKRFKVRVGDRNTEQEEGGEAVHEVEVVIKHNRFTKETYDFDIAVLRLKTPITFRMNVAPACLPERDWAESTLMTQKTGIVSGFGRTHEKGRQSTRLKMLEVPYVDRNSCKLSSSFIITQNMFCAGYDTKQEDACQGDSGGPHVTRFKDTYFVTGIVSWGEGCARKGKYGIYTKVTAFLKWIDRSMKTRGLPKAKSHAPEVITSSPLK
T1 sequence (P00742 41-179 partner limits assumed): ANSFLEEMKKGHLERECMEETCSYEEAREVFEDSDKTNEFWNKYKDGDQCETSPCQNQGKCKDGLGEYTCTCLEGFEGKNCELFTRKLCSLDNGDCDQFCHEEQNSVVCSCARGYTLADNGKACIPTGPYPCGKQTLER

Turning to `Cc1cc(NC(=O)C(C)(C)c2cccc(C(=N)N)c2)ccc1C(=O)N1CCCC1` [(1)], the midpoint of inhibition, the IC50, lay at 0.028 µM.
Then `N=C(N)c1ccc(O)c(CC(=O)Nc2ccc(C(=O)N3CCCC3)c(C(F)(F)F)c2)c1` [(4)], with 0.011 µM.
Then `N=C(N)c1ccc(O)c(CC(=O)Nc2ccc(C(=O)N3CCCC3)c(Cl)c2)c1` [(3)], with 0.033 µM; and `Cc1cc(NC(=O)Cc2cc(C(=N)N)ccc2O)ccc1C(=O)C1CCCNC1` (stereo not shown) [(2)], with 0.32 µM.
